Values quoted from earlier work, collected in patent US20070020642A1, “Structural interaction fingerprint” (priority 2003, published 2007).

Molecular target: p38 (Homo sapiens, UniProt Q16539)
Conditions: result in words, known from the literature

Sequence of p38 (Q16539 whole entry): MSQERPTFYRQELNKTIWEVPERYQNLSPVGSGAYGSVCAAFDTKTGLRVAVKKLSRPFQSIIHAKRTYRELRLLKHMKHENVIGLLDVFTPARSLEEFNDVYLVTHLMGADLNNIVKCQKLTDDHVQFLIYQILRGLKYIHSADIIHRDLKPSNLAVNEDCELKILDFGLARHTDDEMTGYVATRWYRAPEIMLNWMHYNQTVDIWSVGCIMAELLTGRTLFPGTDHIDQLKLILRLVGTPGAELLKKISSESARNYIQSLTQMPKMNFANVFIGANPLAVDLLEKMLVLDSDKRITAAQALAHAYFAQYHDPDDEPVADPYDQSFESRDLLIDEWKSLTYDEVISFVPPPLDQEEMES

Row | p38 inhibition activity | Compound
1 | no p38 inhibition activity | O=C(C(=C1SCS1)c1ccncc1)c1ccc(OC(F)(F)F)cc1 [Cmp-59076, 2-[1,3]Dithietan-2-pyridin-4-yl-1-(4-trifluoromethoxy-phenyl)-ethanone]
2 | potent p38 inhibitors | Fc1ccc(-c2nc3n(c2-c2ccncc2)CCS3)cc1 [SKF-86002]
